Laboratory results reported in patent EP0225272A1, “1-Methyl-15-alpha-alkyl-androsta-1,4-diene-3,17-diones, process for their preparation and pharmaceutical compositions containing them” (SCHERING AKTIENGESELLSCHAFT, priority 1985, dated 1987).

Columns and labels:
Aromataseaktivität = biological target: T1, Aromataseaktivität (Rattus norvegicus, UniProt P22443); assay: PMSG test: serum estradiol in PMSG-pretreated infantile female rats (radioimmunoassay); assay type: in vivo, Ratte; conditions: for Östradiol-Konzentration: peripheral serum, PMSG-pretreated rat, mean ± SD, n=10
T1 construct: Infantile weibliche Ratten reagieren auf PMSG (Pregnant Mare's Serum Gonadotropin)-Behandlung mit einheitlich erhöhter Steroidsynthese; from tissue; host or cells: living infantile female rats (in vivo); serum estradiol measured by radioimmunoassay
T1 sequence (P22443 1-508): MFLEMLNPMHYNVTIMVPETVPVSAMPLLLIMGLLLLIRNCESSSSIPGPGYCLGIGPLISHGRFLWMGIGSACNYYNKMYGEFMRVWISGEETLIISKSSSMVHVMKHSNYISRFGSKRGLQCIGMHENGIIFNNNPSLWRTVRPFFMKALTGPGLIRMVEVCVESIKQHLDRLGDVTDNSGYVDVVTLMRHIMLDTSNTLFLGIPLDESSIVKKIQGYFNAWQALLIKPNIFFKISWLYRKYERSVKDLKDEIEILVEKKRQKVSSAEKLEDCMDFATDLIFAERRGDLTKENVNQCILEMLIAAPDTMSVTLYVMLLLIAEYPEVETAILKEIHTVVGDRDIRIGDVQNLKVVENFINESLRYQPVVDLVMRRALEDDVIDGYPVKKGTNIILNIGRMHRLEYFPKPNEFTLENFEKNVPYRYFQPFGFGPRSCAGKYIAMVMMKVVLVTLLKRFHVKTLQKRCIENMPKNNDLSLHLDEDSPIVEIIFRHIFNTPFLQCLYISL
Procedure: Infantile weibliche Ratten reagieren auf PMSG (Pregnant Mare's Serum Gonadotropin)-Behandlung mit einheitlich erhöhter Steroidsynthese. Die Aromataseaktivität kann durch die Beeinflussung der PMSG-stimulierten Ostrogenbildung gemessen werden.
Im sogenannten PMSG-Test werden 21 Tage alte weibliche Ratten alle 2 Tage insgesamt 7 mal mit je 100 I.U. PMSG subkutan vorbehandelt. 1 Stunde vor und 8 Stunden nach der letzten PMSG-Applikation (d12) erhalten die Tiere die Testsubstanz in 0,1 ml Benzylbenzoat/Rizinusöl (1+9) durch subkutane Injektion. Die Kontrolltiere erhalten nur das Vehikel. 24 Stunden nach der letzten PMSG-Applikation werden die Tiere getötet. Im Serum wird Östradiol radioimmunologisch geprüft. Für jede Gruppe von 10 Tieren wird der Mittelwert der Östradiolkonzentration in nMol/1 mit der Standardabweichung errechnet. Die Signifikanzen der Unterschiede zur Kontrollgruppe werden durch die Varianzanalyse geprüft.
Zur Ermittlung der relativen Wirkungsstärke der zu testenden Substanz im Vergleich zu der Standardsubstanz wird die Regressions- und Kovarianzanalyse durchgeführt. Ferner wird die prozentuale Hemmung gegen die PMSG-Kontrolle berechnet.

Östruszyklus der Ratte = assay: Influence of aromatase inhibitors on the estrous cycle of the rat (Allen-Doisy smear technique); assay type: in vivo, Ratten (SPF-Wistar)
Source text: In einem weiteren Test wird der Einfluß von Aromatasehemmern auf den Östruszyklus der Ratte bestimmt.
Die Substanzen, die die Östrogenbiosynthese bzw. die Wirkung von Östrogenen hemmen, führen zu einer Störung des Östruszyklus bei Nagern.
Verwendet werden weibliche Ratten (SPF-Wistar) von ca. 180 g Körpergewicht. Pro Gruppe werden 10 Tiere eingesetzt. Der Zyklus wird mittels der Allen-Doisy-Abstrichtechnik täglich untersucht. Es werden zwei aufeinanderfolgende Zyklen verfolgt. Nur Tiere mit einem regelmäßigen 4-Tage-Zyklus kommen in den Versuch. Am Tage des Metöstrus werden die Tiere einmal mit der Testsubstanz (20 mg/Tier) subcutan behandelt. Die Testsubstanz wird dabei in einer 0.9%igen Kochsalzlösung mit Myrj-53^(R) (0.085%) suspendiert (0,5 ml/Dosis). Die Kontrolltiere werden nicht behandelt. Der Versuch wird beendet. wenn alle behandelten Tiere wieder normale Zyklen aufweisen.

| Compound | Dosis, mit der eine Hemmung der Östradiol-Konzentration beobachtet wird (Aromataseaktivität; lowest dose with inhibition, given 2 x s.c.) | Östradiol-Konzentration (Aromataseaktivität; dose 0,1 mg/Tier 2 x s.c.) | Östradiol-Konzentration (Aromataseaktivität; dose 0,3 mg/Tier 2 x s.c.) | Östradiol-Konzentration (Aromataseaktivität; dose 1,0 mg/Tier 2 x s.c.) | Östradiol-Konzentration (Aromataseaktivität; dose 3,0 mg/Tier 2 x s.c.) | Dauer der Störung des Zyklus (Durchschnitt) (Östruszyklus der Ratte; single s.c. 20 mg/Tier, average) | Zykluslänge der meisten behandelten Tiere (Östruszyklus der Ratte; single s.c. 20 mg/Tier, untreated animals regular 4-day cycle) | Wirkung auf den Zyklus (Östruszyklus der Ratte; single s.c. treatment 20 mg/Tier at metestrus, effect starts right after treatment) |
| --- | --- | --- | --- | --- | --- | --- | --- | --- |
| C[C@]12CCC(=O)C(O)=C1CC[C@@H]1[C@@H]2CC[C@]2(C)C(=O)CC[C@@H]12 [A, 4-Hydroxy-4-androsten-3,17-dion] | 1,0 mg | 3,98 ± 1,12 nMol/l | 3,84 ± 0,84 nMol/l | 1,94 ± 0,62 nMol/l | 0,98 ± 0,19 nMol/l |  |  |  |
| CC(=O)O[C@@H](C)[C@H]1CC(=O)[C@@]2(C)CC[C@H]3[C@@H](CCC4=CC(=O)C=C(C)[C@@]43C)[C@H]12 [B] |  | 2,11 ± 0,39 nMol/l | 0,62 ± 0,13 nMol/l | 0,54 ± 0,07 nMol/l | 0,36 ± 0,06 nMol/l |  |  |  |
| CCCC(=O)OC(C)C1CC(=O)C2(C)CCC3C(CCC4=CC(=O)C=C(C)C43C)C12 (stereo not drawn) [C, 15a-(1S-Butyryloxy-ethyl)-1-methyl-androsta-1.4-dien-3,17-dion] |  |  |  |  |  | ~15 Tage | 5-Tage-Zyklus | Störung des Zyklus |
